One series relates to femur muscle of mouse. The experiment in a line: ectopic ossification analysis, ACS graft in femur muscle, micro-CT. To be noted: BMP-2 2 μg left femur, peptide 600 μg right femur; n=10; eight weeks after operation. Format: in vivo. How it is done: Eight weeks after the operation, animals were euthanized and micro-CT analysis was performed to observe calcification (ectopic ossification) in the muscle. All 10 animals were used.

The subject of series [1] is undifferentiated stem cells. In words: ALP activity of undifferentiated stem cells cultured on titanium disk (osteocyte differentiation). Format: cell-based. To be noted: peptide 10 μM, 6 hours then osteoblast differentiation medium 48 hours, versus control (C). The source says: As described above, on the surface of hard structures such as bones or on the surface where cells are difficult to attach to, the peptide of the present invention can promotes the cell adhesion which is a key mechanism for the regeneration. […] Therefore, in this Example, various adhesive peptides developed and disclosed in the present disclosure were used to test their activity for promoting the osteocyte differentiation. For this, each peptide was mixed with undifferentiated stem cells, which was then cultured on a titanium osteoconductive surface, and analyzed the cells for the differentiation into osteocytes. Two×10^4 cells/ml treated with trypsin and mixed with peptide (10 μM) were cultured on a dental titanium disk having a diameter of 10 mm in size for 6 hours, after which the medium was replaced with osteoblast differentiation medium and the cells were cultured for 48 hours. Then the discs were recovered and the cells were lysed and ALP (Alkaline phosphatase) activity was measured.

Where no end group is shown, it is not given here.

The values below come from US20230181677A1, “POLYPEPTIDE FOR PROMOTING BONE REGENERATION OR BONE FORMATION AND ITS USE” (SEWON BIOTECHNOLOGY INC., priority 2016, published 2023).

RQLVVKFRALPC [present peptide]: the “ectopic ossification (calcification in the muscle), micro-CT” value in the series on femur muscle of mouse is given as “no ectopic ossification in all the mice treated”.

For the substance “(R) 15-QLVVKFRALPC (RRRRRRRRRRRRRRRQLVVKFRALPC) [SEQ ID NO: 41, peptide positively charged at the N-terminus containing 15 arginine residues]”, the “ALP (Alkaline phosphatase) activity” value in series [1] is recorded as “highest ALP activity”.
